≈ marks a conversion by molar mass, not a printed value.
Columns and labels:
[1] = test system: Escherichia coli LA290 R55; assay: MIC, serial dilution on nutrient agar; assay type: cell-based; details: LA290R55, 18 h, read-out: Minimum Inhibitory Concentrations
[2] = test system: Staphylococcus aureus Terejima; assay: MIC, serial dilution on nutrient agar; assay type: cell-based; details: Staphylococcus aureus Terejima; nutrient agar, 37°C, 18 hours; read-out: Minimum Inhibitory Concentrations
Proteus vulgaris OX 19 = assay: MIC, serial dilution on nutrient agar; assay type: cell-based; details: OX19; Proteus vulgaris OX 19; nutrient agar, 37°C, 18 hours; read-out: Minimum Inhibitory Concentrations
[3] = test system: Pseudomonas aeruginosa 99; assay: MIC, serial dilution on nutrient agar; assay type: cell-based; details: Pseudomonas aeruginosa 99; nutrient agar, 37°C, 18 hours; read-out: Minimum Inhibitory Concentrations
[4] = test system: Mycobacterium smegmatis ATCC 607; assay: MIC, serial dilution on nutrient agar; assay type: cell-based; details: Mycolicibacterium smegmatis, ATCC607; Mycobacterium smegmatis ATCC 607; nutrient agar, 37°C, 18 hours; read-out: Minimum Inhibitory Concentrations
[5] = test system: Pseudomonas aeruginosa No.12; assay: MIC, serial dilution on nutrient agar; assay type: cell-based; details: Pseudomonas aeruginosa No.12; nutrient agar, 37°C, 18 hours; read-out: Minimum Inhibitory Concentrations
[6] = test system: Bacillus cereus ATCC 10702; assay: MIC, serial dilution on nutrient agar; assay type: cell-based; details: ATCC10702; Bacillus cereus ATCC 10702; nutrient agar, 37°C, 18 hours; read-out: Minimum Inhibitory Concentrations
drug-resistant bacteria = details: cited from earlier work
[7] = test system: Salmonella enteritidis 1891; assay: MIC, serial dilution on nutrient agar; assay type: cell-based; details: Salmonella enterica, ENTERITIDIS, 18 h, read-out: Minimum Inhibitory Concentrations
[8] = test system: Escherichia coli K-12 ML 1629; assay: MIC, serial dilution on nutrient agar; assay type: cell-based; details: K12ML1629; Escherichia coli K-12 ML 1629; nutrient agar, 37°C, 18 hours; read-out: Minimum Inhibitory Concentrations
[9] = test system: Shigella flexneri 4b JS 11811; assay: MIC, serial dilution on nutrient agar; assay type: cell-based; details: 4BJS11811, 37°C, 18 hours, read-out: Minimum Inhibitory Concentrations
Description: (§1) The minimum inhibitory concentrations (mcg/ml) of 1,2'-di-N-[(S)-4-amino-2-hydroxybutyryl]-kanamycin B (abbreviated as 1,2'-AHB-KMB), 1,2'-di-N-[(S)-4-amino-2-hydroxybutyryl]-3',4'-dideoxykanamycin B (abbreviated as 1,2'-AHB-DKB), 1,2'-di-N-DL-isoseryl-3',4'-dideoxykanamycin B (abbreviated as 1,2'-IS-DKB) and 1,2'-di-N-DL-isoseryl-kanamycin B (abbreviated as 1,2'-IS-KMB) against various microorganisms were determined according to serial dilution method using nutrient agar medium at 37°C, the estimation being effected after 18 hours incubation. For comparison, the minimum inhibitory concentrations of kanamycin B (abbreviated as KMB) and 3',4'-dideoxykanamycin B (abbreviated as DKB) were also determined in the same manner as mentioned above.

Shigella sonnei JS 11746 = assay: MIC, serial dilution on nutrient agar; assay type: cell-based; details: JS11746, 37°C, 18 hours, read-out: Minimum Inhibitory Concentrations
Description: as §1

[10] = test system: Escherichia coli K-12 ML 1630; assay: MIC, serial dilution on nutrient agar; assay type: cell-based; details: K12ML1630, 37°C, 18 hours, read-out: Minimum Inhibitory Concentrations
Description: as §1

[11] = test system: Escherichia coli JR66/W677; details: strain adenylylating the 2"-hydroxyl group; cited from earlier work
[12] = test system: Corynebacterium bovis 1810; assay: MIC, serial dilution on nutrient agar; assay type: cell-based; details: Corynebacterium bovis 1810; nutrient agar, 37°C, 18 hours; read-out: Minimum Inhibitory Concentrations
[13] = test system: Bacillus subtilis PCI 219; assay: MIC, serial dilution on nutrient agar; assay type: cell-based; details: PCI219; Bacillus subtilis PCI 219; nutrient agar, 37°C, 18 hours; read-out: Minimum Inhibitory Concentrations
[14] = test system: Escherichia coli JR66/W677; assay: MIC, serial dilution on nutrient agar; assay type: cell-based; details: Escherichia coli JR66/W677; nutrient agar, 37°C, 18 hours; read-out: Minimum Inhibitory Concentrations
Sarcina lutea PCI 1001 = assay: MIC, serial dilution on nutrient agar; assay type: cell-based; details: Micrococcus luteus, PCI1001; Sarcina lutea PCI 1001; nutrient agar, 37°C, 18 hours; read-out: Minimum Inhibitory Concentrations
[15] = test system: Klebsiella pneumoniae 22 -3038; assay: MIC, serial dilution on nutrient agar; assay type: cell-based; details: 223038; Klebsiella pneumoniae 22 -3038; nutrient agar, 37°C, 18 hours; read-out: Minimum Inhibitory Concentrations
[16] = test system: Escherichia coli K-12 ML 1410; assay: MIC, serial dilution on nutrient agar; assay type: cell-based; details: Escherichia coli, K12ML1410, 18 h, read-out: Minimum Inhibitory Concentrations
[17] = test system: Escherichia coli K-12 ML 1410 R81; assay: MIC, serial dilution on nutrient agar; assay type: cell-based; details: 18 h, read-out: Minimum Inhibitory Concentrations
Salmonella typhosa T-63 = assay: MIC, serial dilution on nutrient agar; assay type: cell-based; details: Salmonella enterica, 18 h, read-out: Minimum Inhibitory Concentrations
[18] = test system: Pseudomonas aeruginosa GN315; assay: MIC, serial dilution on nutrient agar; assay type: cell-based; details: Pseudomonas aeruginosa GN315; nutrient agar, 37°C, 18 hours; read-out: Minimum Inhibitory Concentrations
[19] = test system: Bacillus subtilis NRRL B-558; assay: MIC, serial dilution on nutrient agar; assay type: cell-based; details: NRRLB558; Bacillus subtilis NRRL B-558; nutrient agar, 37°C, 18 hours; read-out: Minimum Inhibitory Concentrations
[20] = test system: Pseudomonas aeruginosa A3; assay: MIC, serial dilution on nutrient agar; assay type: cell-based; details: Pseudomonas aeruginosa, A3, 18 h, read-out: Minimum Inhibitory Concentrations
[21] = test system: Klebsiella pneumoniae PCI 602; assay: MIC, serial dilution on nutrient agar; assay type: cell-based; details: PCI602; Klebsiella pneumoniae PCI 602; nutrient agar, 37°C, 18 hours; read-out: Minimum Inhibitory Concentrations
[22] = test system: Escherichia coli LA290 R64; assay: MIC, serial dilution on nutrient agar; assay type: cell-based; details: LA290R64, 18 h, read-out: Minimum Inhibitory Concentrations
[23] = test system: Shigella dysenteriae JS 11910; assay: MIC, serial dilution on nutrient agar; assay type: cell-based; details: JS11910, 18 h, read-out: Minimum Inhibitory Concentrations
Escherichia coli W677 = assay: MIC, serial dilution on nutrient agar; assay type: cell-based; details: Escherichia coli W677; nutrient agar, 37°C, 18 hours; read-out: Minimum Inhibitory Concentrations
[24] = test system: kanamycin-resistant strains; details: strains phosphorylating the 3'-hydroxyl group of kanamycins; cited from earlier work
[25] = test system: Staphylococcus aureus Smith; assay: MIC, serial dilution on nutrient agar; assay type: cell-based; details: Staphylococcus aureus Smith; nutrient agar, 37°C, 18 hours; read-out: Minimum Inhibitory Concentrations
Escherichia coli NIHJ = assay: MIC, serial dilution on nutrient agar; assay type: cell-based; details: Escherichia coli NIHJ; nutrient agar, 37°C, 18 hours; read-out: Minimum Inhibitory Concentrations
[26] = test system: Staphylococcus aureus FDA 209P; assay: MIC, serial dilution on nutrient agar; assay type: cell-based; details: FDA209P; Staphylococcus aureus FDA 209P; nutrient agar, 37°C, 18 hours; read-out: Minimum Inhibitory Concentrations
[27] = test system: Pseudomonas aeruginosa TI-13; assay: MIC, serial dilution on nutrient agar; assay type: cell-based; details: Pseudomonas aeruginosa, TI13, 18 h, read-out: Minimum Inhibitory Concentrations
Bacillus anthracis = assay: microbe, parasite or virus in culture; assay type: cell-based; details: 18 h, read-out: Minimum Inhibitory Concentrations
[28] = test system: Escherichia coli LA290 R56; assay: MIC, serial dilution on nutrient agar; assay type: cell-based; details: LA290R56, 18 h, read-out: Minimum Inhibitory Concentrations
Escherichia coli K-12 = assay: MIC, serial dilution on nutrient agar; assay type: cell-based; details: K12; Escherichia coli K-12; nutrient agar, 37°C, 18 hours; read-out: Minimum Inhibitory Concentrations
[29] = test system: ribostamycin-resistant bacteria; details: some ribostamycin-resistant bacteria; cited from earlier work
[30] = test system: kanamycin-resistant bacteria; details: some kanamycin-resistant bacteria; cited from earlier work

For `NC[C@@H]1CC[C@@H](N)[C@@H](O[C@H]2[C@H](O)[C@@H](O[C@H]3O[C@H](CO)[C@@H](O)[C@H](N)[C@H]3O)[C@H](N)C[C@@H]2N)O1` [DKB, 3',4'-dideoxykanamycin B, reference compound], the MIC [1] was 50 µg/mL (≈ 111 µM), the MIC [2] was < 0.2 µg/mL and the MIC (Proteus vulgaris OX 19) was < 0.2 µg/mL. For the same molecule, the MIC [3] was 3.13 µg/mL (≈ 6.93 µM), the MIC [4] was 0.39 µg/mL (≈ 0.864 µM) and the MIC [5] was 0.78 µg/mL (≈ 1.73 µM). The MIC [6] was 0.78 µg/mL (≈ 1.73 µM), the “antibacterial activity against the drug-resistant bacteria” value (drug-resistant bacteria) was “improved antibacterial activity” and the MIC [7] was 1.56 µg/mL (≈ 3.45 µM). It also gave an MIC [8] of 0.78 µg/mL (≈ 1.73 µM), an MIC [9] of 1.56 µg/mL (≈ 3.45 µM) and an MIC (Shigella sonnei JS 11746) of 0.78 µg/mL (≈ 1.73 µM). For the same molecule, the MIC [10] was 0.78 µg/mL (≈ 1.73 µM), the “activity against kanamycin-resistant strains such as Escherichia coli JR66/W677” value [11] was “practically inactive” and the MIC [12] was 3.13 µg/mL (≈ 6.93 µM). For the same molecule, the MIC [13] was < 0.2 µg/mL, the MIC [14] was 50 µg/mL (≈ 111 µM) and the MIC (Sarcina lutea PCI 1001) was 6.25 µg/mL (≈ 13.8 µM). It also gave an MIC [15] of 100 µg/mL (≈ 221 µM), an MIC [16] of 1.56 µg/mL (≈ 3.45 µM) and an MIC [17] of 1.56 µg/mL (≈ 3.45 µM). For the same molecule, the MIC (Salmonella typhosa T-63) was < 0.2 µg/mL, the MIC [18] was > 100 µg/mL and the MIC [19] was < 0.2 µg/mL. The MIC [20] was 1.56 µg/mL (≈ 3.45 µM), the MIC [21] was 0.39 µg/mL (≈ 0.864 µM) and the MIC [22] was 6.25 µg/mL (≈ 13.8 µM). For the same molecule, the MIC [23] was 1.56 µg/mL (≈ 3.45 µM), the MIC (Escherichia coli W677) was 0.2 µg/mL (≈ 0.443 µM) and the “effectiveness against kanamycin-resistant strains” value [24] was “actually effective”. The MIC [25] was < 0.2 µg/mL, the MIC (Escherichia coli NIHJ) was 0.39 µg/mL (≈ 0.864 µM) and the MIC [26] was < 0.2 µg/mL. For the same molecule, the MIC [27] was 1.56 µg/mL (≈ 3.45 µM), the MIC (Bacillus anthracis) was < 0.2 µg/mL and the MIC [28] was 12.5 µg/mL (≈ 27.7 µM). It also gave an MIC (Escherichia coli K-12) of 0.78 µg/mL (≈ 1.73 µM).
For `NCC[C@H](O)C(=O)N[C@@H]1C[C@H](N)[C@@H](O[C@H]2O[C@H](CN)[C@@H](O)[C@H](O)[C@H]2N)[C@H](O[C@@H]2O[C@H](CO)[C@@H](O)[C@H]2O)[C@H]1O` [butirosin B, 1-N-[(S)-α-hydroxy-γ-amino-n-butyryl]-ribostamycin], the “activity against ribostamycin-resistant bacteria” value [29] is listed as “active” and the “activity against kanamycin-resistant bacteria” value [30] is listed as “active”.
